Test [1] addresses T1, cholinergic muscarinic receptors (Rattus norvegicus, UniProt P10980).
T1 construct: rat cardiac membranes; from tissue; host or cells: rat cardiac membranes
T1 sequence (P10980 1-466): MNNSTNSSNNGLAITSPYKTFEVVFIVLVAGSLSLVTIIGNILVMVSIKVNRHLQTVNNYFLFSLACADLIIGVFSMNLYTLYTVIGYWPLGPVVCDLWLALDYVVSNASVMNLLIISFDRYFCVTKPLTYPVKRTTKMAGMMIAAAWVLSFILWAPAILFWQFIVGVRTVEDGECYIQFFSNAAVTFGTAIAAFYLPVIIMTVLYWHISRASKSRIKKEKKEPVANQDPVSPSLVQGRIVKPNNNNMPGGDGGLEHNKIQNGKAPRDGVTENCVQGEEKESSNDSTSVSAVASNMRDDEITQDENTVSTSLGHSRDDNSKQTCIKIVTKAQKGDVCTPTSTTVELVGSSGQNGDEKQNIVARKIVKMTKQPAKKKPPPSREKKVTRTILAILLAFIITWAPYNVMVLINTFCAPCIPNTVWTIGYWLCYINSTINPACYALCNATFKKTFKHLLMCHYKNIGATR
As to the kind of experiment: [3H] Quinuclidinyl benzilate binding, rat cardiac membranes.

For test [2], the target named is T2, cholinergic muscarinic receptors (Cavia porcellus, UniProt H0VRN8).
T2 construct: guinea pig ileum membranes as described by Watson; from tissue; host or cells: guinea pig ileum membranes
T2 sequence (H0VRN8 1-466): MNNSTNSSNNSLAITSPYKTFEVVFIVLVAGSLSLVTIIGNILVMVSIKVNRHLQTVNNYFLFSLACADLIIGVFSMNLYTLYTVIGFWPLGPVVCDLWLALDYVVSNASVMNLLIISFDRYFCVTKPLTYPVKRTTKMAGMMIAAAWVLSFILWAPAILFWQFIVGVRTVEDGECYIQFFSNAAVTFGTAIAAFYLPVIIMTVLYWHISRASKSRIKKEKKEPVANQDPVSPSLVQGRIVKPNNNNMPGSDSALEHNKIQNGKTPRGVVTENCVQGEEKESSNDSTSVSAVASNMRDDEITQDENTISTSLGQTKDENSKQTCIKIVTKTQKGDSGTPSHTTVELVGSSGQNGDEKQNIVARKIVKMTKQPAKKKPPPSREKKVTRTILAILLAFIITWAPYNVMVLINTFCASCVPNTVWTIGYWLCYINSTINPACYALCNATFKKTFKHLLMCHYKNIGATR
Kind of test: [3H] Quinuclidinyl benzilate binding, guinea pig ileum membranes.

Test [3] concerns the target α1-adrenergic receptors. As to the kind of experiment: [3H] Prazosin radioligand binding, rat brain.
The target in test [4] is cholinergic muscarinic receptors. Kind of test: [3H] Quinuclidinyl benzilate binding, rat cerebral cortex membranes.
Test [5] deals with T3, BK-β1 receptors (Oryctolagus cuniculus, UniProt P48748).
T3 construct: spiral strips of rabbit thoracic aorta; from tissue; host or cells: rabbit thoracic aorta spiral strips
T3 sequence (P48748 1-352): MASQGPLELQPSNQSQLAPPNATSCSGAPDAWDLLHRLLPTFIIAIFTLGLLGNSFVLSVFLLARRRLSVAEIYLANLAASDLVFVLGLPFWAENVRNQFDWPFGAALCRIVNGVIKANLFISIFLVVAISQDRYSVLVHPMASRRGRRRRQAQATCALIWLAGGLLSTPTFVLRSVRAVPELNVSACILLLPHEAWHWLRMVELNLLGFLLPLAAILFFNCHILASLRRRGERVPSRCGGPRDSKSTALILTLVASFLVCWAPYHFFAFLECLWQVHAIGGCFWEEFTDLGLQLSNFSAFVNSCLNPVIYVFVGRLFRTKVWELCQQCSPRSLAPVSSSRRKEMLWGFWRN
As to the kind of experiment: Antagonism of BK-β1 receptors, spiral strips of rabbit thoracic aorta (agonist des Arg9-BK). The note with it: Schild analysis. As for the experimental part: (§1) Antagonism of BK-β1 receptors was measured using spiral strips of rabbit thoracic aorta as described by Regoli et. al., Eur. J. Pharmacol., 127,219 (1986).

Test [6] concerns histamine H1 receptor. Kind of test: H1 histaminergic receptor activity in rabbit aorta (agonist histamine). As for the experimental part:
as §1
(§2) The α1 -adrenergic and H1 histaminergic receptor activity of compounds were also assessed using rabbit aorta with norepinephrine and histamine, respectively, as agonists.

For test [7], the target named is T4, BK β2 receptor (Cavia porcellus, UniProt O70526).
T4 construct: from tissue; host or cells: guinea pig ileum membranes
T4 sequence (O70526 1-372): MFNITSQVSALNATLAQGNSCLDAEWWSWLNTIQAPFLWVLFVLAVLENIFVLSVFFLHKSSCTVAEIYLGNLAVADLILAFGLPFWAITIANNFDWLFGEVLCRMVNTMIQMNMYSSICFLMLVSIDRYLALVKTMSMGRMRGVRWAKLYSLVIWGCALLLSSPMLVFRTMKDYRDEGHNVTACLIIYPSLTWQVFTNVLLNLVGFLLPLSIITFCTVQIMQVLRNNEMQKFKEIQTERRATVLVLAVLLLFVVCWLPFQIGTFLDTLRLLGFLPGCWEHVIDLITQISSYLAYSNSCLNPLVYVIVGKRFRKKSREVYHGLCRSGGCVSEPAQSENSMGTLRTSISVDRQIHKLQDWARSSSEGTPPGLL
As to the kind of experiment: [3H] BK radioligand binding, guinea pig ileum membranes. The settings on record: read-out: IC50, inhibition of [3H] BK binding.

For test [8], the system named is α1-adrenergic receptor. As to the kind of experiment: α1-adrenergic receptor activity in rabbit aorta (agonist norepinephrine). As for the experimental part: as §1, §2
Test [9] concerns bradykinin receptors of rat vas deferens. The note with it: cited from earlier work.
In test [10] the test system is β1 receptor. The note with it: compared with BK; cited from earlier work.
Test [11] has as its system β2 receptors. The settings on record: cited from earlier work.

Where no end group is shown, it is not given here.

The term IC50 denotes the concentration that gives 50% inhibition. `CC(C)=CCNC(=N)NCCC[C@@H]1Nc2ccc(C(=O)OC/C(C)=C/CNC(=N)N)cc2[C@@H]2[C@H]1CCN2C(=N)NCC=C(C)C` (relative stereo) [Compound I]: the IC50 in test [1] came out at 100 nM; in test [2] it was 100 nM; in [3], 60 nM; in test [4], 100 nM; in test [7] it was 200 nM. Besides, the “mode of antagonism, β1 receptor” value in test [5] was “competitive β1 receptor antagonist”. For the same compound, the Kb in [5] (read-out: pA2 value, β1 receptor (converted)) is 2000 nM. Further, in test [6], the “mode of antagonism, histamine H1 receptor” value was “competitive antagonist”. In test [6], the “pA2 value, histamine H1 receptor” value came to 5.9. Besides, the “mode of antagonism, α1 receptor” value in test [8] is on record as “competitive antagonist”. In addition, in test [8], the “pA2 value, α1 receptor” value was 7.1.

Turning to RPPGFSPFR [BK], in [9] (isolated rat vas deferens), the “musculotropic or postjunctional action” value is given as “contracted the smooth muscle generating an increased muscle tone”. Moreover, the “neurogenic or presynaptic effect” value in test [9] (isolated rat vas deferens, electrically driven twitches) was “potentiated the magnitude of the muscular response to the electrically driven twitches”.

For the compound des-Arg^9 -bradykinin, in test [10], the “β1 receptor agonist potency” value is “higher potency than BK”. Besides, the “pre- or postsynaptic BK like responses” value in test [9] (rat vas deferens) is “inactive”. Also, in test [11], the “activity at β2 receptors” value is “relatively inactive”.

The record behind these values is patent US5288725A, “Pyrroloquinoline Bradykinin antagonist” (Merck & Co., Inc., priority 1992, dated 1994).
